Laboratory results published in publication PMC11106739, “Discovery and Derivatization of Tridecaptin Antibiotics with Altered Host Specificity and Enhanced Bioactivity” (ACS Chemical Biology, 2024).

Test system: Gram-positive lipid II / S. aureus USA300 (MRSA)
Assay: Lipid II antagonization assay
Format: cell-based, Staphylococcus aureus
Conditions: compound at 8x MIC, 5-fold molar excess of Gram-positive lipid II, MHB with 0.002% polysorbate-80, 37 °C, 18 h, resazurin, triplicates
Procedure: Laboratory Institute (CLSI) guidelines. Gram-positive lipid II, containing lysine at position 3 of the pentapeptide, was prepared by total chemical synthesis.1,2 Lipid II in 1 : 1 chloroform : methanol (v/v) was added to a polypropylene 96-well plate (5-fold molar excess compared to test antibiotics) and the organic solvent was allowed to evaporate. Oct-TriA5 and vancomycin in MHB (50 µL, 16xMIC) were added to the wells with the 5-fold molar excess of pure Gram-positive lipid II in triplicates and to the control wells without lipid II. Single colony of S. aureus USA300 (MRSA) from a fresh blood agar plate was suspended in TSB and grown to an OD600 of 0.5. The bacterial culture then was diluted in MHB with 0.002% polysorbate-80 to reach 10^6 CFU/mL and 50 µL were mixed with test compounds to achieve the final concentration of 8xMIC for all tested compounds. The plate was incubated at 37°C for 18 h with constant shaking (600 rpm) and subsequently inspected for visible bacterial growth. To visualize the viability of the indicator strain, resazurin sodium salt solution (Merck, Dorset, UK) was added to the cultures to achieve the final concentration of 0.0015% (w/v) and incubated at RT for 1 h.
Figure S4. HPLC trace showing the reinjection of purified Oct-TriD (3). The peptide eluted as a single peak at 17.263 min using the HPLC method A.
Figure S5. […]

CN[C@H](CC(C)C)C(=O)N[C@H]1C(=O)N[C@@H](CC(N)=O)C(=O)N[C@H]2C(=O)N[C@H]3C(=O)N[C@H](C(=O)N[C@H](C(=O)O)c4cc(O)cc(O)c4-c4cc3ccc4O)[C@H](O)c3ccc(c(Cl)c3)Oc3cc2cc(c3O[C@@H]2O[C@H](CO)[C@@H](O)[C@H](O)[C@H]2O[C@H]2C[C@](C)(N)[C@H](O)[C@H](C)O2)Oc2ccc(cc2Cl)[C@H]1O [vancomycin, reference compound]
growth of S. aureus USA300 (MRSA) after addition of lipid II: not inhibited
